# Columns and labels:
# human TLR7 = target: T1, human TLR7 (Homo sapiens, UniProt Q9NYK1); assay: HEK293-Blue-hTLR-7 cells assay (SEAP reporter, R848 stimulation); assay type: cell-based; settings: HEK293-Blue-hTLR7 cells, R848, 20 hrs; read-out: HEK/hTLR7 IC50
# T1 construct: host or cells: HEK293 (HEK-Blue hTLR7)
# T1 sequence (Q9NYK1 27-1049): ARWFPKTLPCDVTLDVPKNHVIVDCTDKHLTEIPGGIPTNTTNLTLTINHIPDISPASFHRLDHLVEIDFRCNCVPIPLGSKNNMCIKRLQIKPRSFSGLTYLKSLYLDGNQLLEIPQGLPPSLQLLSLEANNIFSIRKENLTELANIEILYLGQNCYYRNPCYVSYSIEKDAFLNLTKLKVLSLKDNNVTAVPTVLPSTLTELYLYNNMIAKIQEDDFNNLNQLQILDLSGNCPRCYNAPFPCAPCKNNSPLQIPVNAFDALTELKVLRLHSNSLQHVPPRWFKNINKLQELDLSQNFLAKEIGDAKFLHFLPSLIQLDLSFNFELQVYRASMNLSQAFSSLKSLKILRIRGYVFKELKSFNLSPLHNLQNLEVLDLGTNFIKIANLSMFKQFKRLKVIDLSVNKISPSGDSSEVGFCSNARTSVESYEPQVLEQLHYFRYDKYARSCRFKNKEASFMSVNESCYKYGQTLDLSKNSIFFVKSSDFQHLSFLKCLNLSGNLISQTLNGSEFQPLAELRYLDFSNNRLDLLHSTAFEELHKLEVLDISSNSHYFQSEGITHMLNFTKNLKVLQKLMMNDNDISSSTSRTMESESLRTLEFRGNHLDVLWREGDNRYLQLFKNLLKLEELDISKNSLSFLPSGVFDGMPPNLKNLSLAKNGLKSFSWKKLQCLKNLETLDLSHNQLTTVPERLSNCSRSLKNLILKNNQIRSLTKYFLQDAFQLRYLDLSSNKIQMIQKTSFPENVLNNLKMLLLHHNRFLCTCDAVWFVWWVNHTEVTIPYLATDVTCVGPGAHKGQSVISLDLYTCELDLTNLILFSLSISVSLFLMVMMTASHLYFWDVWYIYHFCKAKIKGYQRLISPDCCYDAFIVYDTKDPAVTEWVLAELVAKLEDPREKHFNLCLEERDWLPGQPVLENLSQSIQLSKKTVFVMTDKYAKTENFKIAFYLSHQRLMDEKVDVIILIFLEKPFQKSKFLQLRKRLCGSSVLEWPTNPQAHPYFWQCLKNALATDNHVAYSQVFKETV
# Protocol: The following tests were carried out in order to determine the activity of the compounds of formula (I) and (Ia) in HEK293-Blue-hTLR-7/8/9 cells assay.
# A stable HEK293-Blue-hTLR-7 cell line was purchased from InvivoGen (Cat. #: hkb-htlr7, San Diego, California, USA). These cells were originally designed for studying the stimulation of human TLR7 by monitoring the activation of NF-κB. A SEAP (secreted embryonic alkaline phosphatase) reporter gene was placed under the control of the IFN-β minimal promoter fused to five NF-κB and AP-1-binding sites. The SEAP was induced by activating NF-κB and AP-1 via stimulating HEK-Blue hTLR7 cells with TLR7 ligands. Therefore the reporter expression w % as declined by TLR7 antagonist under the stimulation of a ligand, such as R848 (Resiquimod), for incubation of 20 hrs. The cell culture supernatant SEAP reporter activity was determined using QUANTI-Blue™ kit (Cat. #: rep-qb1, Invivogen, San Diego, Ca, USA) at a wavelength of 640 nm, a detection medium that turns purple or blue in the presence of alkaline phosphatase.
# HEK293-Blue-hTLR7 cells were incubated at a density of 250,000˜450,000 cells/mL in a volume of 170 μL in a 96-well plate in Dulbecco's Modified Eagle's medium (DMEM) containing 4.5 g/L glucose, 50 U/mL penicillin, […], […] Normocin, 2 mM L-glutamine, 10% (v/v) heat-inactivated fetal bovine serum with addition of 20 μL test compound in a serial dilution in the presence of final DMSO at 1% and 10 μL of 20 uM R848 in above DMEM, perform incubation under 37° C. in a C02 incubator for 20 hrs. Then 20 μL of the supernatant from each well was incubated with 180 μL Quanti-blue substrate solution at 37° C. for 2 hrs and the absorbance was read at 620˜655 nm using a spectrophotometer. The signaling pathway that TLR7 activation leads to downstream NF-κB activation has been widely accepted, and therefore similar reporter assay was modified for evaluating TLR7 antagonist.
# [1] = Human microsome stability assay; assay type: in vitro ADME; settings: 1 μM test compound, 0.5 mg/mL liver microsomal protein, 37° C., pH 7.4
# Protocol: The human microsomal stability assay is used for early assessment of metabolic stability of a test compound in human liver microsomes.
# Human liver microsomes (Cat. NO.: 452117, Corning, USA; Cat. NO.: H2610, Xenotech, USA) were preincubated with test compound for 10 minutes at 37° C. in 100 mM potassium phosphate buffer, pH 7.4. The reactions were initiated by adding NADPH regenerating system. The final incubation mixtures contained 1 μM test compound, 0.5 mg/mL liver microsomal protein, 1 mM MgCl2, 1 mM NADP, 1 unit/mL isocitric dehydrogenase and 6 mM isocitric acid in 100 mM potassium phosphate buffer, pH 7.4. After incubation times of 0, 3, 6, 9, 15 and 30 minutes at 37° C., 300 μL of cold acetonitrile (including internal standard) was added to 100 μL incubation mixture to terminate the reaction. Following precipitation and centrifugation, the amount of compound remaining in the samples were determined by LC-MS/MS. Controls of no NADPH regenerating system at zero and 30 minutes were also prepared and analyzed.
Compound,IC50 (human TLR7),Clearance of Human microsome [1]
"C[C@H]1CN(c2ccnc3c2cnn3C)Cc2ccc(N3C[C@@H]4CCNCC4C3=O)cc21 (relative stereo) [Example 55, cis-2-[(4R)-4-methyl-2-(1-methylpyrazolo[3,4-b]pyridin-4-yl)-3,4-dihydro-1H-isoquinolin-6-yl]-3a,4,5,6,7,7a-hexahydro-1H-pyrrolo[3,4-c]pyridin-3-one]",7 nM,8.2 mL/min/kg
"C[C@H]1CN(c2ccnc3c2cnn3C)Cc2ccc(N3C[C@@]4(CCNC4)CC3=O)cc21 (single isomer, unassigned) [Example 53]",18 nM,7.0 mL/min/kg
"C[C@H]1CN(c2ccnc3c2cnn3C)Cc2ccc(N3CCNCC3)cc21 [Example 1, (4R)-4-methyl-2-(1-methylpyrazolo[3,4-b]pyridin-4-yl)-6-piperazin-1-yl-3,4-dihydro-1H-isoquinoline]",3 nM,6.2 mL/min/kg
"Cc1cc(N2Cc3ccc(N4CCNCC4)cc3[C@@H](C)C2)c2cnn(C)c2n1 [Example 2, (4R)-2-(1,6-dimethylpyrazolo[3,4-b]pyridin-4-yl)-4-methyl-6-piperazin-1-yl-3,4-dihydro-1H-isoquinoline]",8 nM,9.0 mL/min/kg
"Cn1ncc2c(N3CCc4cc(N5CCNCC5)ccc4C3)ccnc21 [Example 3, 2-(1-methylpyrazolo[3,4-b]pyridin-4-yl)-6-piperazin-1-yl-3,4-dihydro-1H-isoquinoline]",19 nM,9.5 mL/min/kg
"C[C@H]1CN(c2ccnc3c2cnn3C)Cc2ccc(N3CCN(C(=O)C4CCNCC4)CC3)cc21 [Example 7, 4-piperidyl-[4-[(4R)-4-methyl-2-(1-methylpyrazolo[3,4-b]pyridin-4-yl)-3,4-dihydro-1H-isoquinolin-6-yl]piperazin-1-yl]methanone]",18 nM,10.3 mL/min/kg
"C[C@H]1CN(c2ccnc3c2cnn3C)Cc2ccc(N3CCN(C(=O)C4CCCN4)CC3)cc21 (stereo partly drawn) [Example 8, pyrrolidin-2-yl-[4-[(4R)-4-methyl-2-(1-methylpyrazolo[3,4-b]pyridin-4-yl)-3,4-dihydro-1H-isoquinolin-6-yl]piperazin-1-yl]methanone]",6 nM,7.0 mL/min/kg
"C[C@H]1CN(c2ccnc3c2cnn3C)Cc2ccc(N3CCN(c4cc5c(cn4)CCNC5)CC3)cc21 [Example 9, 7-[4-[(4R)-4-methyl-2-(1-methylpyrazolo[3,4-b]pyridin-4-yl)-3,4-dihydro-1H-isoquinolin-6-yl]piperazin-1-yl]-1,2,3,4-tetrahydro-2,6-naphthyridine]",7 nM,9.9 mL/min/kg
"C[C@H]1CN(c2ccnc3c2cnn3C)Cc2ccc(N3CCC(O)(CN(C)C)CC3)cc21 [Example 13, 4-[(dimethylamino)methyl]-1-[(4R)-4-methyl-2-(1-methylpyrazolo[3,4-b]pyridin-4-yl)-3,4-dihydro-1H-isoquinolin-6-yl]piperidin-4-ol]",7 nM,6.2 mL/min/kg
"Cc1cc(N2Cc3ccc(N4CCC(O)(CN(C)C)CC4)cc3[C@@H](C)C2)c2cnn(C)c2n1 [Example 14, 4-[(dimethylamino)methyl]-1-[(4R)-2-(1,6-dimethylpyrazolo[3,4-b]pyridin-4-yl)-4-methyl-3,4-dihydro-1H-isoquinolin-6-yl]piperidin-4-ol]",8 nM,6.2 mL/min/kg
"CC1CN(c2ccc3c(c2)[C@@H](C)CN(c2ccnc4c2cnn4C)C3)CCN1 (stereo partly drawn) [Example 15, (4R)-4-methyl-6-(3-methylpiperazin-1-yl)-2-(1-methylpyrazolo[3,4-b]pyridin-4-yl)-3,4-dihydro-1H-isoquinoline]",4 nM,6.2 mL/min/kg
"C[C@H]1CN(c2ccnc3c2cnn3C)Cc2ccc(N3CC4(CCNCC4)CC3=O)cc21 [Example 16, 2-[(4R)-4-methyl-2-(1-methylpyrazolo[3,4-b]pyridin-4-yl)-3,4-dihydro-1H-isoquinolin-6-yl]-2,8-diazaspiro[4.5]decan-3-one]",5 nM,8.2 mL/min/kg
"C[C@H]1CN(c2ccnc3c2cnn3C)Cc2ccc(OC[C@H]3CNCCN3)cc21 [Example 18, (4R)-4-methyl-2-(1-methylpyrazolo[3,4-b]pyridin-4-yl)-6-[[(2R)-piperazin-2-yl]methoxy]-3,4-dihydro-1H-isoquinoline]",8 nM,10.5 mL/min/kg
"C[C@H]1CN(c2ccnc3c2cnn3C)Cc2ccc(OC[C@@H]3CNCCN3)cc21 [Example 19, (4R)-4-methyl-2-(1-methylpyrazolo[3,4-b]pyridin-4-yl)-6-[[(2S)-piperazin-2-yl]methoxy]-3,4-dihydro-1H-isoquinoline]",8 nM,7.7 mL/min/kg
"CO[C@@H]1CN(c2ccc3c(c2)[C@@H](C)CN(c2ccnc4c2cnn4C)C3)C[C@H]1N [Example 20, (3R,4R)-4-methoxy-1-[(4R)-4-methyl-2-(1-methylpyrazolo[3,4-b]pyridin-4-yl)-3,4-dihydro-1H-isoquinolin-6-yl]pyrrolidin-3-amine]",3 nM,10.2 mL/min/kg
"C[C@H]1CN(c2ccnc3c2cnn3C)Cc2ccc(N3CC4(CNCCO4)C3)cc21 [Example 21, 2-[(4R)-4-methyl-2-(1-methylpyrazolo[3,4-b]pyridin-4-yl)-3,4-dihydro-1H-isoquinolin-6-yl]-5-oxa-2,8-diazaspiro[3.5]nonane]",7 nM,10.1 mL/min/kg
"CCn1ncc2c(N3Cc4ccc(N5CCNCC5)cc4[C@@H](C)C3)ccnc21 [Example 22, (4R)-2-(1-ethylpyrazolo[3,4-b]pyridin-4-yl)-4-methyl-6-piperazin-1-yl-3,4-dihydro-1H-isoquinoline]",10 nM,6.2 mL/min/kg
"CO[C@@H]1CN(c2ccc3c(c2)[C@@H](C)CN(c2cc(C)nc4c2cnn4C)C3)C[C@H]1N [Example 23, (3R,4R)-4-methoxy-1-[(4R)-2-(1,6-dimethylpyrazolo[3,4-b]pyridin-4-yl)-4-methyl-3,4-dihydro-1H-isoquinolin-6-yl]pyrrolidin-3-amine]",5 nM,7.5 mL/min/kg
